Source: patent US5019584A, “Therapeutically active chloro substituted benzimidazole” (priority 1988, dated 1991)
Where two headings read alike, the source gives them in different places.

Key:
[1] = Bioavailability in the Male Rat (AUC method); format: in vivo, Sprague-Dawley; conditions: blood, 4 umol/kg, AUC id vs iv, 4 μmol/kg, read-out: Bioavailability measured by the AUL-method, F %, Rat
Protocol: Bioavailability is assessed by calculating the quotient between the area under plasma concentration (AUC) curve following intraduodenal (id) administration and intravenous (iv) administration from the rat or the dog. Low, therapeutically relevant doses, were used. This method is scientifically recognized as valid for assessing bioavailability (see for instance: M. Rowland and T.N. Tozer, Clinical Pharmacokinetics, 2nd ed., Lea & Febiger, London 1989, p 42). Bioavailability in the Male Rat. Male adult rats of the Sprague-Dawley strain were used. One day, prior to the experiments, all rats were prepared by cannulation of the left carotid artery under anaesthesia. The rats used for the intravenous experiments, were also cannulated in the jugular vein. (Ref. V Popovic and P Popovic, J Appl Physiol 1960;15,727-728). The rats used for the intraduodenal experiments, were also cannulated in the upper part of the duodenum. The cannulas were exteriorized at the nape of the neck. […] The area under the blood concentration vs time curve, AUC, was determined by the linear trapezoidal rule and extrapolated to infinity by dividing the last determined blood concentration by the elimination rate constant in the terminal phase. The systemic bioavailability (F %) following intraduodenal administration was calculated as [formula]

[2] = Inhibition of Gastric Acid Secretion in the Conscious Male Rat; format: in vivo, Sprague-Dawley; conditions: in vivo, ratio ED50 iv/ED50 id, read-out: "Bioavailability" measured by the Rough Screening Model, Rat ED50 iv/ED50 id (%)
Protocol: (§1) Since the bioavailability model described above is time and labour intensive, and requires a large number of plasma analyses, also a rough screening model, based on relative potencies to inhibit acid secretion, has been used (see for instance: A. Goth, Medical Pharmacology, 7th ed., C. V. Mosby Company, Saint Louis 1974, p 19). Thus, the ratio (called "Bioavailability" in Table 3) between the ED50 at intravenous administration and the ED50 at intraduodenal administration was calculated.
(§2) The potency for inhibition of acid secretion has been measured in the male rat and the dog, both intravenously and intraduodenally. When it comes to relevance of the animal test data for potency of a given compound in man for the present type of compounds, it is believed that potency in man will correspond to a level somewhere between what is measured in the male rat and what is measured in the dog.
(§3) Inhibition of Gastric Acid Secretion in the Conscious Male Rat.
(§4) Male rats of the Sprague-Dawley strain were used. They were equipped with cannulated fistulae in the stomach (lumen) and the upper part of the duodenum, for collection of gastric secretions and administration of test substances, respectively. A fourteen days recovery period after surgery was allowed before testing commenced.
(§5) Before secretory tests, the animals were deprived of food but not water for 20 h. The stomach was repeatedly washed through the gastric cannula, and 6 ml of Ringer-Glucose given s.c. Acid secretion was stimulated with a infusion during 3.5 h (1.2 ml/h, s.c.) of pentagastrin and carbachol (20 and 110 nmol/kg h, respectively), during which time gastric secretions were collected in 30-min fractions. Test substances or vehicle were given iv or id at 90 min after starting the stimulation, in a volume of 1 ml/kg. Gastric juice samples were titrated to pH 7.0 with NaOH, 0.1 mol/L, and acid output calculated as the product of titrant volume and concentration. Further calculations were based on group mean responses from 4-5 rats. The acid output during the periods after administration of test substances or vehicle were expressed as fractional responses, setting the acid output in the 30-min period preceding administration to 1.0. Percentage inhibition was calculated from the fractional responses elicited by test compound and vehicle. ED50 values were obtained from graphical interpolation on log dose-response curves, or estimated from single-dose experiments assuming a similar slope for all dose-response curves. An estimation of the bioavailability was obtained by calculating the ratio ED50 iv /ED50 id. The results reported are based on gastric acid secretion during the second hour after drug/vehicle administration.

[3] = system: gastric acid secretion (stimulated with pentagastrin and carbachol); assay: as above; format: in vivo, Sprague-Dawley; conditions: 2 h, acid secretion during second hour after administration
Protocol: as §1, §2, §3, §4, §5

[4] = Chemical Stability in aqueous buffer solution at pH 7; format: physicochemical; conditions: pH 7, 37° C., low concentration; for half-life: read-out: Chemical Stability at pH 7, half-life (t 1/2) (converted)
Protocol: The chemical stability of various compounds of the invention has been followed kinetically at low concentration at 37° C. in aqueous buffer solution at different pH values. The results in Table 3 show the half life (t 1/2) at pH 7, that is the time period after which half the amount of the original compound remains unchanged.

[5] = system: gastric acid secretion (stimulated with histamine dihydrochloride); assay: Inhibition of Gastric Acid Secretion in the Conscious Dog; format: in vivo, Harrier dog, either sex; conditions: for ED50: Canis lupus familiaris, dog, acid output 2 h after dosing
Protocol: as §2
Inhibition of Gastric Acid Secretion and Bioavailability in the Conscious Dog.
Harrier dogs of either sex were used. They were equipped with a duodenal fistula for the administration of test compounds or vehicle and a cannulated ventricular fistula for the collection of gastric secretions.
Before secretory tests the animals were fasted for about 18 h but water was freely allowed. Gastric acid secretion was stimulated by a 4 h infusion of histamine dihydrochloride (12 ml/h) at a dose producing about 80% of the individual maximal secretory response, and gastric juice collected in consecutive 30-min fractions. Test substance or vehicle was given id or iv 1 h after starting the histamine infusion, in a volume of 0.5 ml/kg body weight. The acidity of the gastric juice samples were determined by titration to pH 7.0, and the acid output calculated. The acid output in the collection periods after administration of test substance or vehicle were expressed as fractional responses, setting the acid output in the fraction preceding administration to 1.0. Percentage inhibition was calculated from fractional responses elicited by test compound and vehicle. ED50 --values were obtained by graphical interpolation on log dose-response curves, or estimated from single-dose experiments under the assumption of the same slope of the dose-response curve for all test compounds. All results reported are based on acid output 2 h after dosing.

[6] = route id (intraduodenal), read-out: Inhibition of acid secretion, Rat ED50, id
[7] = route iv, read-out: Inhibition of acid secretion, Rat ED50, iv
[8] = route id (intraduodenal), Ref. value: estimated from one dog (footnote 1), read-out: Inhibition of acid secretion, Dog ED50, id

bioavailability [1] [%]	bioavailability [2] [%]	Chemical Stability at pH 7, half-life (t 1/2) [4] [h]	half-life [4] [h]	SMILES	ED50 [3, 6] [µmol/kg]	ED50 [3, 7] [µmol/kg]	ED50 [5, 8] [µmol/kg]	ED50 ([5]; route iv, Example 1 value: only one dog (footnote 2), read-out: Inhibition of acid secretion, Dog ED50, iv) [µmol/kg]	effect on acid secretion at 1.0 μmol/kg ([5]; Dog 1, 1.0 μmol/kg, id)	inhibition of acid secretion at 2.0 μmol/kg ([5]; Dog 2, 2.0 μmol/kg, id) [%]
97	50	30	30	COc1ccnc(C[S+]([O-])c2nc3cc(Cl)ccc3[nH]2)c1OC (centres unmarked) [Example 1, 5-chloro-2-[[(3,4-dimethoxy-2-pyridinyl)methyl]sulfinyl]-1H-benzimidazole]	2.6	1.3	1.2	1.75	–	–
47	49	58	58	COc1ccnc(C[S+]([O-])c2nc3cc(F)ccc3[nH]2)c1OC (centres unmarked) [Ref., 5-fluoro-2-[[(3,4-dimethoxy-2-pyridinyl)methyl]sulfinyl]-1H-benzimidazole]	1.75	0.85	1.1	–	no effect	70
